Holding throughout (format): biochemical
One experiment deals with FGFR3 kinase (Homo sapiens, UniProt P22607). Description: Z-Lyte Kinase Assay of FGFR3. The method, then: Z-Lyte Kinase Assay of FGFR3
The final concentrations are 1, 0.33, 0.11, 0.037, 0.012, 0.004, 0.0014, 0.00046 μM, and the final concentration of DMSO is 2%. • 3) Kinase/Peptide Mixture (P/K solution): Prepare Kinase/Peptide Mixture by diluting the kinase to 0.7 μg/ml and the Z-LYTE™ Tyr 4 peptide to 4 μM in 1.33× Kinase Buffer. Mix gently by pipetting. • 4) Phospho-peptide Solution (PP solution): Add 0.4 μl of Z-LYTE™ Tyr 4 Phospho-peptide to 99.6 μl of 1.33× Kinase Buffer. • 5) ATP Solution: Prepare ATP Solution by diluting the 10 mM of ATP in 1.33× Kinase Buffer to 300 uM. • 6) Development Solution: Dilute Development Reagent B with Development Buffer as 1:128.
Shake the plate for 30 Sec and centrifuge (1500 rpm, 1 min) • Seal the plate to protect from the light and incubate the plate for 1 hour at RT (25-30[…]) • 2) Development reaction • Add 5 μl of the Development solution to all wells • Shake the plate for 30 Sec and centrifuge (1500 rpm, 1 min) • Seal the plate to protect from the light and incubate the plate for 1 hour at RT (25-30[…]) • 3) Stop and read • Add 5 μl of the Stop reagent to all wells • Shake the plate for 30 Sec and centrifuge (1500 rpm, 1 min) • Measure the value of Coumarin (Ex400 nm, Em445 nm) and fluorescein (Ex400 nm, Em520 nm), respectively.
Inhibition rate(IR)=1−%Photest Cpd/%PhoC2
• determined with add-in software for Microsoft Excel, XLfit™ (version 2.0) from ID Business Solutions (Guildford, UK)

The next experiment concerns the target Recombinant human FGFR1 (Homo sapiens, UniProt P11362). Nature of the experiment: Transcreener Kinase Assay of FGFR1. The settings on record: read-out: FGFR1 (FP) IC50. The method, then:
Transcreener Kinase Assay of FGFR1
(§1) Prepare Solution • Compounds were solved in DMSO and were diluted with assay buffer to 5 folds of final concentration keeping the DMSO concentration at 5%. Further dilution are needed to make final concentrations are at 1, 0.33, 0.11, 0.037, 0.012, 0.004, 0.0014, 0.0005 μM; (the final concentration of DMSO is 1%). • Enzyme/Substrate stock Preparation: Recombinant human FGFR1 and Poly E4Y are both diluted in assay buffer.
Enzymatic Reaction • In a 96-well plate, Add 5 μL of compound or control. (positive control: 5 μL of 5% DMSO; negative control: 5 μL of 500 mM EDTA) into desired wells; • Add 10 μL of Enzyme/Substrate stock into each well; • Add 10 μL of ATP Diluents to initiate the enzyme reaction and votex the plate immediately on a plate shaker; • For the wells to make standard curve, add 5 μL of 5% DMSO, 10 μL of assay buffer and 10 μL of ATP standard curve stock. • Incubate the plate for 45 min at 28[…] on a plate shaker in a low speed.
Excitation wavelength: 610 nm, Emission wavelength: 670 nm.
(§2) • [ADP] in Compound well represents the ADP concentration in compound well. • [ADP] in Positive control well represents the ADP concentration in 5% DMSO well • Conversion of mP value to ADP concentration is calculated based on the formula which determined by standard curve. And mP value is measured by following the instruction provided by BellBrook Labs. (www.bellbrooklabs.com). 6. IC50: calculated using XL-Fit 2.0 software.

The next experiment addresses Recombinant human FGFR2 (Homo sapiens, UniProt P21802). Description: Transcreener Kinase Assay of FGFR2. The settings on record: read-out: FGFR2 (FP) IC50. The method, then: Transcreener Kinase Assay of FGFR2
as §1, with “•” for “Prepare Solution •”, “FGFR2” for “FGFR1”, “buffer. The final concentration is 0.3 ng/μL for FGFR2 and 62.5 ng/μL for Poly E4Y. The mixture is being kept in ice before use; • Prepare ATP Diluents, 10 mM ATP is diluted in assay buffer, the final concentration is 25 μM; • Prepare ADP Diluents: diluted ADP (500 μM) in assay buffer, the final concentration is 25 μM; • Prepare ATP standard curve stock as following:” for “buffer.”
• In a 96-well plate, Add 5 μL of compound or control. (positive control: 5 μL of 5% DMSO; negative control: 5 μL of 500 mM EDTA) into desired wells; • Add 10 μL of Enzyme/Substrate stock into each well; • Add 10 μL of ATP Diluents to initiate the enzyme reaction and votex the plate immediately on a plate shaker; • For the wells to make standard curve, add 5 μL of 5% DMSO, 10 μL of assay buffer and 10 μL of ATP standard curve stock. • Incubate the plate for 45 min at 28[…] on a plate shaker in a low speed.
• Detection Mix Preparation: The mixture is made by dilution with MilliQ water; as following: ADP Alexa633 tracer (1:100), ADP antibody (1:158), and stop & detect buffer (1:10); • Tracer Only control Preparation: The mixture is made by dilution with MilliQ water; as following: ADP Alexa633 tracer (1:100), and stop & detect buffer (1:10) • No Tracer control Preparation: stop & detect buffer is diluted with MilliQ water; by 10 fold. • Add 25 μL of detection mix, Tracer Only control and No Tracer control into corresponding wells, respectively; • Incubate at 28 °C for 1 h, on a plate shaker in a low speed; • Measure florescence polarization (FP) on TECAN F500. Excitation wavelength: 610 nm, Emission wavelength: 670 nm.
as §2

Consider 25 molecules from US20160052926A1, “NOVEL PYRIMIDINE AND PYRIDINE COMPOUNDS AND USAGE THEREOF” (HUTCHISON MEDIPHARMA LIMITED, priority 2013, published 2016).

Usually IC50 stands for the concentration at which inhibition is half-maximal.

Sequence of FGFR3 kinase (P22607 23-806): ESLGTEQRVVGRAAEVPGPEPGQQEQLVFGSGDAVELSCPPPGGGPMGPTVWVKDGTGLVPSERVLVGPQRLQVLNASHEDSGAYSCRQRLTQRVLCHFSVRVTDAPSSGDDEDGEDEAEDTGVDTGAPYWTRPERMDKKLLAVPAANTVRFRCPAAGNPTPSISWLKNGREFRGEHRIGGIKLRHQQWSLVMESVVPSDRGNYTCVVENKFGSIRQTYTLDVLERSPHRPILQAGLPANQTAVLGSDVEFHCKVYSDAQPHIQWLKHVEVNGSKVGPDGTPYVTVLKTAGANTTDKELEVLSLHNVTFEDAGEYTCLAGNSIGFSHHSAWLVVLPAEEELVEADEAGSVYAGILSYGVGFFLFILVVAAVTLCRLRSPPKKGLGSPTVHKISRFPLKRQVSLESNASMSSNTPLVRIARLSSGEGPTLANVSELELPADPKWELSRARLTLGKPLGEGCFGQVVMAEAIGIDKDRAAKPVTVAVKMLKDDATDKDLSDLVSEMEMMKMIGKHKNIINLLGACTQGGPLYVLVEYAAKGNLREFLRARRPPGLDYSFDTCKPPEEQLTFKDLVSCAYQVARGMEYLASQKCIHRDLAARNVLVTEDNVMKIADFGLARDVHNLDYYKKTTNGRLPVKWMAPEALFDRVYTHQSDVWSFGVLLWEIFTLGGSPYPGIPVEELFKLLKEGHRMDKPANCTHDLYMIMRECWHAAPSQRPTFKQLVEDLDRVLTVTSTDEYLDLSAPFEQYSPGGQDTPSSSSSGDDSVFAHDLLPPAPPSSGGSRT
Sequence of Recombinant human FGFR2 (P21802 22-821): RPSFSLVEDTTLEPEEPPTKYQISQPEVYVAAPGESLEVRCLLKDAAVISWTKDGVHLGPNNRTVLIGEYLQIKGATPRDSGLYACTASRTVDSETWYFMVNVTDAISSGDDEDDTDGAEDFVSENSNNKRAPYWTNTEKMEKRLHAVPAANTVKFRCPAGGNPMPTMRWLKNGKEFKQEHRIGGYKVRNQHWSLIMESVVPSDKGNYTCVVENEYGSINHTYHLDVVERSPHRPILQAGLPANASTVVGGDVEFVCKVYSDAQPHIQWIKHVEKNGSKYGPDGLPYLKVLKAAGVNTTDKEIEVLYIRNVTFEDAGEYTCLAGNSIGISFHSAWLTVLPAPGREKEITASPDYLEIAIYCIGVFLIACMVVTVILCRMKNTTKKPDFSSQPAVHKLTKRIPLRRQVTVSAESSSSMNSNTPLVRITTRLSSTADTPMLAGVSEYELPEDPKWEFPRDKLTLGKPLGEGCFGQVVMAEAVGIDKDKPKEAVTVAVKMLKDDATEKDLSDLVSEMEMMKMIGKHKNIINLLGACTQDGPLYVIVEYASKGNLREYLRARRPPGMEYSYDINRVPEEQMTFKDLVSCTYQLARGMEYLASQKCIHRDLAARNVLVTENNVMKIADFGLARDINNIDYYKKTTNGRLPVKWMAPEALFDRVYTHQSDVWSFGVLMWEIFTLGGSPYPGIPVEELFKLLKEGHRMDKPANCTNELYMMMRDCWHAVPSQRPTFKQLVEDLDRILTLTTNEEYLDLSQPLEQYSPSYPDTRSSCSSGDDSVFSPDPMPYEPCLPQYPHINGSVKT
Sequence of Recombinant human FGFR1 (P11362 22-822): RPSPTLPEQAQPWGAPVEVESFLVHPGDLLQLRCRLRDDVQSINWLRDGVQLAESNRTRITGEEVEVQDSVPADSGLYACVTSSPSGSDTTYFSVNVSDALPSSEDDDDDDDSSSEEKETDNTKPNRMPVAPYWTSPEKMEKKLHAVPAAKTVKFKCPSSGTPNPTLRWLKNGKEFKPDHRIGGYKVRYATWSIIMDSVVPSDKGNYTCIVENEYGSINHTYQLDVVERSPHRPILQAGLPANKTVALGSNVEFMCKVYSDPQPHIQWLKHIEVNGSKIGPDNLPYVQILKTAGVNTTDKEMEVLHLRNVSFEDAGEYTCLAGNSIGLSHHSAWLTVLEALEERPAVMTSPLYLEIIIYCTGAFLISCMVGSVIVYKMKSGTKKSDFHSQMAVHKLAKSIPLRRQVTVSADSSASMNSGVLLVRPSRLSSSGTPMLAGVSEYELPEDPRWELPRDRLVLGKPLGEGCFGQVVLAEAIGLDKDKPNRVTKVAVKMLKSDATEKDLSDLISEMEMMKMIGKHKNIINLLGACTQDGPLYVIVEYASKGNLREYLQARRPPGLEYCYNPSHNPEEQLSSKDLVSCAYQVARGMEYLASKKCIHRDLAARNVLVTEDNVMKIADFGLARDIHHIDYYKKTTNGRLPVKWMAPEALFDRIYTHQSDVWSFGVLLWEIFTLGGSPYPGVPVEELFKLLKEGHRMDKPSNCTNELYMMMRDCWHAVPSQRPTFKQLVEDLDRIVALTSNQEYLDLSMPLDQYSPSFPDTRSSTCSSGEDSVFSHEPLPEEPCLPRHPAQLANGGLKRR

With `CNC(=O)c1cc(CCc2cnc(Nc3cnn(C4CNC4)c3)nc2)c(F)c(OC)c1` [Compound 160], the IC50 at FGFR3 kinase is 16 nM; on Recombinant human FGFR1, 15 nM; on Recombinant human FGFR2 it was 10 nM.

Take `CCN1CCN(c2ccc(Nc3ncc(CCc4cc(C(=O)NC)cc5occc45)cn3)cc2)CC1` [Compound 4]: the IC50 was 795 nM against FGFR3 kinase, 201 nM on Recombinant human FGFR1 and 233 nM at Recombinant human FGFR2.

Take `CNC(=O)c1cc(COc2cnc(Nc3ccc(CC(=O)O)cc3)nc2)c(F)c(OC)c1` [Compound 207]: the IC50 against FGFR3 kinase turned out to be 29 nM; at Recombinant human FGFR1, 45 nM; on Recombinant human FGFR2, 16 nM.

Regarding `CNC(=O)c1cc(CCc2cnc(Nc3cnn([C@@H]4CCNC4)c3)nc2)c(F)c(OC)c1` [Compound 161], the figures for the IC50 at FGFR3 kinase, on Recombinant human FGFR1 and on Recombinant human FGFR2 were 12 nM, 17 nM and 9 nM, respectively.

Turning to `CCN1CCN(c2ccc(Nc3ncc(CCc4cc(OC)cc(C(=O)NOC(C)C)c4)cn3)cc2)CC1` [Compound 58], the results for the IC50 on FGFR3 kinase, on Recombinant human FGFR1 and at Recombinant human FGFR2 were 509 nM, 325 nM and 123 nM, respectively.

As to `CCN1CCN(c2ccc(Nc3ncc(CCc4cc(C(=O)NC5CC5)cc5occc45)cn3)cc2)CC1` [Compound 7], the IC50 turned out to be 590 nM against FGFR3 kinase, 143 nM at Recombinant human FGFR1 and 169 nM on Recombinant human FGFR2.

For `CNC(=O)c1cc(CCc2cnc(Nc3cccc(N4C[C@@H](C)N[C@@H](C)C4)c3)nc2)cc(OC)c1` [Compound 12], the IC50 at FGFR3 kinase came to 128 nM; at Recombinant human FGFR1 it was 98 nM; at Recombinant human FGFR2, 25 nM.

`CNC(=O)c1cc(C#Cc2cnc(Nc3ccc(N4C[C@@H](C)N[C@@H](C)C4)cc3)nc2)c(Cl)c(OC)c1` [Compound 222, 4-chloro-3-((2-((4-((3S,5R)-3,5-dimethylpiperazin-1-yl)phenyl)amino)pyrimidin-5-yl)ethynyl)-5-methoxy-N-methylbenzamide]: the half-maximal inhibitory concentration (IC50) was 27 nM on FGFR3 kinase, 22 nM on Recombinant human FGFR1 and 8 nM on Recombinant human FGFR2.

In the case of `CCN1CC[C@@H](n2cc(Nc3ncc(CCc4cc(C(=O)NC)cc(OC)c4F)cn3)cn2)C1` [Compound 170], the IC50 is 132 nM at FGFR3 kinase, 99 nM at Recombinant human FGFR1 and 87 nM on Recombinant human FGFR2.

As for `CNC(=O)c1cc(CCc2cnc(Nc3cnn(CC(=O)N4CCN(C)CC4)c3)nc2)c(F)c(OC)c1` [Compound 144], the results for the 50% inhibitory concentration (IC50) against FGFR3 kinase, on Recombinant human FGFR1 and at Recombinant human FGFR2 were 16 nM, 13 nM and 6 nM, respectively.

For `CNC(=O)c1cc(COc2cnc(Nc3ccc(N4C[C@@H](C)N[C@@H](C)C4)c(F)c3)nc2)c(Cl)c(OC)c1` [Compound 220], the IC50 against FGFR3 kinase was 10 nM; on Recombinant human FGFR1, 10 nM; on Recombinant human FGFR2, 4 nM.

`CCOc1cc(CCc2cnc(Nc3ccc(N4CCN(CC)CC4)cc3)nc2)cc(C(=O)NOC)c1` [Compound 51]: the IC50 against FGFR3 kinase was 175 nM; on Recombinant human FGFR1, 103 nM; at Recombinant human FGFR2 it was 113 nM.

As for `CCn1cc(Nc2ccc(OCc3cc(C(=O)NC)cc(OC)c3F)cn2)cn1` [Compound 187], the IC50 was 227 nM on FGFR3 kinase, 271 nM on Recombinant human FGFR1 and 132 nM at Recombinant human FGFR2.

As for `CNC(=O)c1cc(CCc2cnc(Nc3cnn(C4CCNCC4)c3)nc2)c(Cl)c(OC)c1` [Compound 158, 4-chloro-3-methoxy-N-methyl-5-(2-(2-(1-(piperidin-4-yl)-1H-pyrazol-4-ylamino)pyrimidin-5-yl)ethyl)benzamide], the results for the IC50 at FGFR3 kinase, on Recombinant human FGFR1 and on Recombinant human FGFR2 were 6 nM, 8 nM and 8 nM, respectively.

Consider `CNC(=O)c1cc(CCc2cnc(Nc3ccn4cnnc4c3)nc2)c(F)c(OC)c1` [Compound 68], for which the half-inhibitory concentration (IC50) stood at 25 nM at FGFR3 kinase, 31 nM on Recombinant human FGFR1 and 13 nM at Recombinant human FGFR2.

Regarding `C#Cc1ccc(Nc2ncc(OCc3cc(C(=O)NC)cc(OC)c3F)cn2)cc1` [Compound 210], the IC50 turned out to be 690 nM against FGFR3 kinase, 119 nM at Recombinant human FGFR1 and 27 nM on Recombinant human FGFR2.

Regarding `CNC(=O)c1cc(CCc2cnc(Nc3ccc(N4C[C@@H](C)N[C@@H](C)C4)nc3)nc2)c(Cl)c(OC)c1` [Compound 214], the concentration for half-maximal inhibition (IC50) amounted to 17 nM against FGFR3 kinase, 10 nM at Recombinant human FGFR1 and 11 nM at Recombinant human FGFR2.

Turning to `CNC(=O)c1cc(COc2cnc(Nc3cnn(C4C[C@@H](C)N[C@@H](C)C4)c3)nc2)c(F)c(OC)c1` (some centres unmarked) [Compound 202], the half-inhibitory concentration (IC50) came to 7 nM against FGFR3 kinase, 15 nM on Recombinant human FGFR1 and 6 nM on Recombinant human FGFR2.

`CNC(=O)c1cc(CCc2cnc(Nc3ccn4c(COC)nnc4c3)nc2)c(F)c(OC)c1` [Compound 73]: the half-maximal inhibitory concentration (IC50) against FGFR3 kinase came to 40 nM; on Recombinant human FGFR1, 34 nM; on Recombinant human FGFR2, 11 nM.

For `CCN1CCN(c2ccc(Nc3ncc(CCc4cc(C(=O)NOC)cc5c4CCO5)cn3)cc2)CC1` [Compound 6], the 50% inhibitory concentration (IC50) on Recombinant human FGFR1 came to 922 nM; on Recombinant human FGFR2 it was 986 nM.

As to `CNC(=O)c1cc(CCc2cnc(Nc3cnn([C@H]4CCNC4)c3)nc2)c(F)c(OC)c1` [Compound 162], the figures for the concentration for half-maximal inhibition (IC50) on FGFR3 kinase, at Recombinant human FGFR1 and on Recombinant human FGFR2 were 14 nM, 17 nM and 10 nM, respectively.

With `CNC(=O)c1cc(CCc2cnc(Nc3cnn(C4CCNCC4)c3)nc2)c(F)c(OC)c1` [Compound 164], the IC50 on FGFR3 kinase, on Recombinant human FGFR1 and on Recombinant human FGFR2 was 8 nM each time.

For the molecule `CNC(=O)c1cc(CCc2cnc(Nc3ccn4c(C)nnc4c3)nc2)c(F)c(OC)c1` [Compound 70], the half-maximal inhibitory concentration (IC50) against FGFR3 kinase stood at 22 nM; on Recombinant human FGFR1 it was 27 nM; at Recombinant human FGFR2, 16 nM.

On to `CNC(=O)c1cc(CCc2cnc(Nc3cc[n+]([O-])c(C)c3)nc2)c(F)c(OC)c1` [Compound 78, 4-((5-(2-fluoro-3-methoxy-5-(methylcarbamoyl)phenethyl)pyrimidin-2-yl)amino)-2-methylpyridine 1-oxide], for which the IC50 on FGFR3 kinase came to 31 nM; at Recombinant human FGFR1, 44 nM; on Recombinant human FGFR2, 18 nM.

`CCn1cnc(Nc2ncc(CCc3cc(C(=O)NC)cc(OC)c3F)cn2)c1` [Compound 28]: the concentration for half-maximal inhibition (IC50) at FGFR3 kinase stood at 347 nM; at Recombinant human FGFR1, 360 nM; at Recombinant human FGFR2 it was 245 nM.
